Source: patent US20220127281A1, “HETEROARYL COMPOUNDS THAT INHIBIT G12C MUTANT RAS PROTEINS” (AstraZeneca AB, priority 2017, published 2022)
Read-outs that look alike come from different tables or passages of the source.

Tests used:
[1] = molecular target: T1, GDP loaded biotinylated KRas^G12C protein (Homo sapiens, UniProt P01116, G12C); experiment: KRasG12C functional assay; format: biochemical; conditions: HTRF FRET readout of SOS-mediated nucleotide exchange and GST-Raf RBD binding, samples incubated for 4 hrs
T1 construct: biotin (biotinylated); made in house
T1 sequence (P01116 1-188 isoform P01116-2 G12C): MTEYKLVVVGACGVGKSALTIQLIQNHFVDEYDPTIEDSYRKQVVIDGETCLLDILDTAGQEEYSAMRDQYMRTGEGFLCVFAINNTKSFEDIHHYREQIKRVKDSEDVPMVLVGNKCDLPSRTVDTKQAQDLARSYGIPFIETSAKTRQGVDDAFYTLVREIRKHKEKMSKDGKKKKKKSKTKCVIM
Procedure: KRasG12C Functional Assay
All enzyme and substrate solutions were prepared in assay buffer containing 20 mM HEPES (pH 7.5), 5 mM MgCl2, 150 mM NaCl, and 0.01% Tween 20. […] In a separate mix 20 nM GST-Raf Ras binding domain (GST-Raf RBD, purified in house) and 4 μg/ml anti-GST XL665 antibody (Cisbio) was prepared in assay buffer containing 50 mM Potassium Fluoride and 0.05 mg/ml BSA and equilibrated for 4 hours before adding 0.6 μM Guanosine 5′-[γ-thio]triphosphate (GTPγS, Sigma) and 0.08 μM SOS (purified in house). 5 μl of the GST-RAF RBD mix was then dispensed into each well of the assay plate. […] This is detected simultaneously via the specific binding interaction between active GTPγS KRas^G12C with GST-Raf RBD which brings the europium and XL665 into close proximity enabling an increased FRET signal to be detected on a Pherastar (BMG) plate reader equipped with the HTRF filter module. […] IC50 values were calculated from normalised dose-response response FRET data curve fitted in Genedata screener (Basel, Switzerland).

[2] = molecular target: T1, GDP loaded biotinylated KRas^G12C protein; experiment: KRasG12C mass spectrometry adducting assay; format: binding; conditions: test compound final concentration 10 μM, 4 μM KRasG12C, react for 4 hours
Procedure: KRasG12C Mass Spectrometry Adducting Assay
Enzyme solutions were prepared in assay buffer containing 20 mM HEPES (pH 7.5), 5 mM MgCl2, and 150 mM NaCl. […] The plate was sealed before reading on a Xevo G2 QTOF (Waters) and Acquity LC system (Waters). […] Blank samples were run in between each test sample.
Data was analysed in Mass Lynx software (Waters), the Total ion count (TIC) trace was used and the eluted protein peak data combined. Using the combined spectrum the data was deconvoluted using MaxEnt1 method. The peak area for apo-protein KRas^G12C (APO) and KRAS+relative cmpd mass (adduct) were measured, and a percentage adduct was calculated using the following calculation:
Percent adduct=100*(area of adduct peak/(sum of APO+adduct peaks)

[3] = read-out: KRasG12C functional assay IC50 value

| Structure (SMILES) | IC50 [1, 3] [µM] | KRasG12C M.S. Binding Mean adduct % [2] [%] | IC50 ([1]; KRasG12C functional assay IC50 value (μM)) [µM] |
| --- | --- | --- | --- |
| C=CC(=O)N1CCN2c3ncnc4cc(-c5c(O)cccc5F)c(Cl)c(c34)OC[C@@H]2C1 (single isomer, unassigned) [Example 11] | 0.097 | 92 | – |
| C=CC(=O)N1CCN2c3ncnc4cc(-c5ccccc5O)c(Cl)c(c34)OC[C@@H]2C1 [Example 63, 1-[(8aS)-6-Chloro-5-(2-hydroxyphenyl)-8a,9,11,12-tetrahydropyrazino[2′,1′:3,4][1,4]oxazepino[5,6,7-de]quinazolin-10(8H)-yl]prop-2-en-1-one] | 0.896 | 87 | – |
| C=CC(=O)N1CCN2c3ncnc4cc(-c5c(O)cccc5F)c(Cl)c(c34)OC[C@@H]2C1 [Example 9, 1-[(8aS)-6-Chloro-5-(2-fluoro-6-hydroxyphenyl)-8a,9,11,12-tetrahydropyrazino-[2′,1′:3,4][1,4]oxazepino[5,6,7-de]quinazolin-10 (8H)-yl]prop-2-en-1-one] | 0.124 | 100 | – |
| C=CC(=O)N1CCN2c3ncnc4cc(-c5c(F)cccc5OC)c(Cl)c(c34)OC[C@@H]2C1 [Example 25, 1-[(8aS)-6-Chloro-5-(2-fluoro-6-methoxyphenyl)-8a,9,11,12-tetrahydropyrazino[2′,1′:3,4][1,4]oxazepino[5,6,7-de]quinazolin-10(8H)-yl]prop-2-en-1-one] | 0.616 | 89 | – |
| C=CC(=O)N1CCN2c3ncnc4cc(-c5c(O)cccc5C#N)c(Cl)c(c34)OC[C@@H]2C1 (single isomer, unassigned) [Example 19] | 41.8 | 0 | – |
| C=CC(=O)N1CCN2c3ncnc4cc(-c5c(C)ccc6[nH]ncc56)cc(c34)OC[C@@H]2C1 [Example 5, 1-[(8aS)-5-(5-Methyl-1H-indazol-4-yl)-8a,9,11,12-tetrahydropyrazino[2′,1′:3,4][1,4]-oxazepino[5,6,7-de]quinazolin-10 (8H)-yl]prop-2-en-1-one] | 0.798 | 91 | – |
| C=CC(=O)N1CCN2c3ncnc4cc(-c5c(C)ccc6[nH]ncc56)c(Cl)c(c34)OC[C@@H]2C1 (single isomer, unassigned) [Example 2] | – | 2 | 38.9 |
| C=CC(=O)N1CCN2c3ncnc4cc(-c5cccc(OC)c5O)c(Cl)c(c34)OC[C@@H]2C1 [Example 27, 1-[(8aS)-6-Chloro-5-(2-hydroxy-3-methoxyphenyl)-8a,9,11,12-tetrahydropyrazino[2′,1′:3,4][1,4]oxazepino[5,6,7-de]quinazolin-10(8H)-yl]prop-2-en-1-one] | 3.03 | 73 | – |
| C=CC(=O)N1CCN2c3ncnc4cc(-c5c(C)cnc6[nH]ncc56)c(Cl)c(c34)OC[C@@H]2C1 [Example 14, 1-[(8aS)-6-Chloro-5-(5-methyl-1H-pyrazolo[3,4-b]pyridin-4-yl)-8a,9,11,12-tetrahydro-pyrazino[2′,1′:3,4][1,4]oxazepino[5,6,7-de]quinazolin-10 (8H)-yl]prop-2-en-1-one] | 2.54 | 53 | – |
| C=CC(=O)N1CCN2c3ncnc4cc(-c5c(O)cccc5OC)c(Cl)c(c34)OC[C@@H]2C1 (single isomer, unassigned) [Example 18] | 0.868 | 100 | – |
| C=CC(=O)N1CCN2c3ncnc4cc(-c5ccc(O)cc5)c(Cl)c(c34)OC[C@@H]2C1 [Example 52, 1-[(8aS)-6-Chloro-5-(4-hydroxyphenyl)-8a,9,11,12-tetrahydropyrazino[2′,1′:3,4][1,4]oxazepino[5,6,7-de]quinazolin-10(8H)-yl]prop-2-en-1-one] | 5.36 | 17 | – |

Second part, led by results:

| IC50 [1, 3] [µM] | KRasG12C M.S. Binding Mean adduct % [2] [%] | Structure (SMILES) | IC50 ([1]; KRasG12C functional assay IC50 value (μM)) [µM] |
| --- | --- | --- | --- |
| 1.72 | 0 | C=CC(=O)N1CCN2c3nc(NCCN(C)C)nc4cc(-c5c(C)ccc6[nH]ncc56)c(Cl)c(c34)OC[C@@H]2C1 (single isomer, unassigned) [Example 79] | – |
| 22.4 | 0 | C=CC(=O)N1CCN2c3nc(N4CC(N(C)C)C4)nc4cc(-c5c(C)ccc6[nH]ncc56)c(Cl)c(c34)OC[C@@H]2C1 (single isomer, unassigned) [Example 76] | – |
| 9.93 | 26 | C=CC(=O)N1CCN2c3ncnc4cc(-c5cccc6c5CCCOC6)c(Cl)c(c34)OC[C@@H]2C1 [Example 28, 1-[(8aS)-6-Chloro-5-(1,3,4,5-tetrahydro-2-benzoxepin-6-yl)-8a,9,11,12-tetrahydropyrazino[2′,1′:3,4][1,4]oxazepino[5,6,7-de]quinazolin-10(8H)-yl]prop-2-en-1-one] | – |
| 0.166 | 26 | C=CC(=O)N1CCN2c3ncnc4cc(-c5c(C)ccc6[nH]ncc56)c(Cl)c(c34)OCC[C@@H]2C1 (single isomer, unassigned) [Example 82] | – |
| 5.02 | 45 | C=CC(=O)N1CCN2c3ncnc4cc(-c5ccccc5S(C)(=O)=O)c(Cl)c(c34)OC[C@@H]2C1 [Example 29, 1-[(8aS)-6-Chloro-5-[2-(methylsulfonyl)phenyl]-8a,9,11,12-tetrahydropyrazino[2′,1′:3,4][1,4]oxazepino[5,6,7-de]quinazolin-10(8H)-yl]prop-2-en-1-one] | – |
| 1.28 | 82 | C=CC(=O)N1CCN2c3ncnc4cc(-c5cc(CO)ccc5F)c(Cl)c(c34)OC[C@@H]2C1 [Example 38, 1-[(8aS)-6-Chloro-5-[2-fluoro-5-(hydroxymethyl)phenyl]-8a,9,11,12-tetrahydropyrazino[2′,1′:3,4][1,4]oxazepino[5,6,7-de]quinazolin-10(8H)-yl]prop-2-en-1-one] | – |
| 7.09 | 42 | C=CC(=O)N1CCN2c3ncnc4cc(-c5cccc6ncoc56)c(Cl)c(c34)OC[C@@H]2C1 [Example 58, 1-[(8aS)-5-(1,3-Benzoxazol-7-yl)-6-chloro-8a,9,11,12-tetrahydropyrazino[2′,1′:3,4][1,4]oxazepino[5,6,7-de]quinazolin-10(8H)-yl]prop-2-en-1-one] | – |
| 2.42 | 68 | C=CC(=O)N1CCN2c3ncnc4cc(-c5cccc6ocnc56)c(Cl)c(c34)OC[C@@H]2C1 [Example 57, 1-[(8aS)-5-(1,3-Benzoxazol-4-yl)-6-chloro-8a,9,11,12-tetrahydropyrazino[2′,1′:3,4][1,4]oxazepino[5,6,7-de]quinazolin-10(8H)-yl]prop-2-en-1-one] | – |
| 5.09 | 57 | C=CC(=O)N1CCN2c3ncnc4cc(-c5cc(F)ccc5OC)c(Cl)c(c34)OC[C@@H]2C1 [Example 51, 1-[(8aS)-6-Chloro-5-(5-fluoro-2-methoxyphenyl)-8a,9,11,12-tetrahydropyrazino[2′,1′:3,4][1,4]oxazepino[5,6,7-de]quinazolin-10(8H)-yl]prop-2-en-1-one] | – |
| 0.803 | 79 | C=CC(=O)N1CCN2c3ncnc4cc(-c5cccc6cnn(C)c56)c(Cl)c(c34)OC[C@@H]2C1 [Example 39, 1-[(8aS)-6-Chloro-5-(1-methyl-1H-indazol-7-yl)-8a,9,11,12-tetrahydropyrazino[2′,1′:3,4][1,4]oxazepino[5,6,7-de]quinazolin-10(8H)-yl]prop-2-en-1-one] | – |
| 1.58 | 72 | C=CC(=O)N1CCN2c3ncnc4cc(-c5cccc6c5ncn6C)c(Cl)c(c34)OC[C@@H]2C1 [Example 45, 1-[(8aS)-6-Chloro-5-(1-methyl-1H-benzimidazol-4-yl)-8a,9,11,12-tetrahydropyrazino[2′,1′:3,4][1,4]oxazepino[5,6,7-de]quinazolin-10(8H)-yl]prop-2-en-1-one] | – |
| 39.4 | 5 | C=CC(=O)N1CCN2c3nc(N4CCOCC4)nc4cc(-c5c(C)ccc6[nH]ncc56)c(Cl)c(c34)OC[C@@H]2C1 (single isomer, unassigned) [Example 72] | – |
| 0.445 | 67 | C=CC(=O)N1CCN2c3nc(N4CCOCC4)nc4cc(-c5c(C)ccc6[nH]ncc56)c(Cl)c(c34)OC[C@@H]2C1 [Example 70, 1-[(8aS)-6-chloro-5-(5-methyl-1H-indazol-4-yl)-2-(morpholin-4-yl)-8a,9,11,12-tetrahydropyrazino[2′,1′:3,4][1,4]oxazepino[5,6,7-de]quinazolin-10 (8H)-yl]prop-2-en-1-one] | – |
